Source: US20050096327A1, “Novel norepinephrine reuptake inhibitors for the treatment of central nervous system disorders” (priority 2003, published 2005)

Columns and labels:
[1] = biological target: T1, human norepinephrine transporter (Homo sapiens, UniProt P23975); assay: hNET receptor binding ([125I]-RTI-55, membranes of transfected HEK-293 cells); conditions: 50 pM [125I]-RTI-55, 90 min room temperature; IC50 converted by Cheng-Prusoff
T1 construct: host or cells: HEK-293
Procedure, shortened: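 Competition binding on membranes from HEK-293 cells transfected with human NET, using 50 pM [125I]-RTI-55 in Krebs-HEPES pH 7.4, drug 10^−5 to 10^−12 M in duplicate, 90 min at room temperature, filtration. Nonspecific binding defined with 10 μM desipramine; IC50 converted to Ki by Cheng-Prusoff.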

[2] = biological target: T2, human serotonin transporter (Homo sapiens, UniProt P31645); assay: hSERT receptor binding ([125I]-RTI-55, membranes of transfected HEK-293 cells); conditions: 50 pM [125I]-RTI-55, 90 min room temperature; IC50 converted by Cheng-Prusoff
T2 construct: host or cells: HEK-293
Procedure, shortened: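 Membranes of HEK-293 cells expressing human SERT incubated 90 min at room temperature with 50 pM [125I]-RTI-55 and compound (10^−5 to 10^−12 M) in Krebs-HEPES, pH 7.4. Nonspecific binding defined with 10 μM citalopram; IC50 converted to Ki by Cheng-Prusoff.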

T1 sequence (P23975 whole entry): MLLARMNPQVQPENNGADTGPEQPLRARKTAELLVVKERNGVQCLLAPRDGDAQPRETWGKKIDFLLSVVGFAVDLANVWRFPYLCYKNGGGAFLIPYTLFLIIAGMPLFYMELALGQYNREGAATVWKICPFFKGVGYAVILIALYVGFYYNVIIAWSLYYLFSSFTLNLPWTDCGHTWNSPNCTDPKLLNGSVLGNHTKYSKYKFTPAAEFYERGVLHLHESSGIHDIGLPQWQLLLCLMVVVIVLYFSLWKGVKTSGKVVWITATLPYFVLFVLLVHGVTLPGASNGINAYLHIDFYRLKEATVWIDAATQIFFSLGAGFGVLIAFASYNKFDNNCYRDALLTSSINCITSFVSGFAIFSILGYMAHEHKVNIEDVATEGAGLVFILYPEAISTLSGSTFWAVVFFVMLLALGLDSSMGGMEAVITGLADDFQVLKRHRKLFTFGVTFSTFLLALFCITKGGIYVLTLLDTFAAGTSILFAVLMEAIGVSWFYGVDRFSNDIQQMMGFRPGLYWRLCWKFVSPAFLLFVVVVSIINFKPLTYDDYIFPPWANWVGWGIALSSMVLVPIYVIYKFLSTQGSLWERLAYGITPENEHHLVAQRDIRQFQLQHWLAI
T2 sequence (P31645 whole entry): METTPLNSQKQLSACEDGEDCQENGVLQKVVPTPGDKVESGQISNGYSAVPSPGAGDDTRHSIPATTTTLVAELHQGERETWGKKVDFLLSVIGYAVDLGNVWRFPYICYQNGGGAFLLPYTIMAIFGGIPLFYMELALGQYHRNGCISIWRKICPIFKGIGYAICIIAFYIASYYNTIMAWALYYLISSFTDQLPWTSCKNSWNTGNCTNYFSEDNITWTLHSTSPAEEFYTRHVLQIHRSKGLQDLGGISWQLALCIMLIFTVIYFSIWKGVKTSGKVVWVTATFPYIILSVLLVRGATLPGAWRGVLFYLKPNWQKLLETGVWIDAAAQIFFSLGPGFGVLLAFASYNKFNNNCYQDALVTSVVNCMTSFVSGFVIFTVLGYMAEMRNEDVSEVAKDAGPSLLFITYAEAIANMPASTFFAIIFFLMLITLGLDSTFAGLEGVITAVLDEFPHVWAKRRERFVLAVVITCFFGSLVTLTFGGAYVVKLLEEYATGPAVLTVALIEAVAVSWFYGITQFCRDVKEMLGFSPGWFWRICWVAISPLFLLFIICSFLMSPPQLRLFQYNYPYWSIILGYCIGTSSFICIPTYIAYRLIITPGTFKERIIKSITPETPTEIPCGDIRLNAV

For `Cl.Fc1ccccc1-c1nc(N2CCNCC2)nc2ccccc12` [Example 20, 4-(2-Fluoro-phenyl)-2-piperazin-1-yl-quinazoline hydrochloride], the Ki [1] was 1.7 nM, the Ki [2] was 12 nM and the melting point was 276 to 277 °C.
With `Cl.Fc1ccccc1-c1nc(N2CCCNCC2)nc2ccccc12` [Example 21, 2-[1,4]Diazepan-1-yl-4-(2-fluoro-phenyl)-quinazoline hydrochloride] the Ki [1] was 3.7 nM and the melting point was 190 to 192 °C.
Work on `CN1CCN(c2nc(-c3ccc(F)cc3)c3ccccc3n2)CC1` [Example 25, 4-(4-Fluoro-phenyl)-2-(4-methyl-piperazin-1-yl)-quinazoline] yielded a Ki [1] of 82 nM and a melting point of 130 to 131 °C.
`CN1CCN(c2nc(-c3cccc(F)c3)c3ccccc3n2)CC1` [Example 26, 4-(3-Fluoro-phenyl)-2-(4-methyl-piperazin-1-yl)-quinazoline] showed a Ki [1] of 34.9 nM and a melting point of 134 to 135 °C.
`CN1CCN(c2nc(-c3cccs3)c3ccccc3n2)CC1.O=C(O)C(=O)O` [Example 27, 2-(4-Methyl-piperazin-1-yl)-4-thiophen-2-yl-quinazoline oxalate] gave a Ki [1] of 67.4 nM and a melting point of 216 to 217 °C.
For `C[C@@H]1CNCCN1c1nc(-c2ccccc2)c2ccccc2n1.Cl` [Example 30, (R)-(−)-2-(2-Methyl-piperazin-1-yl)-4-phenyl-quinazoline hydrochloride], the Ki [1] was 5.5 nM and the melting point was 150 to 161 °C.
In the case of `Cl.c1ccc(-c2nc(N3CC4CCCC(C3)N4)nc3ccccc23)cc1` [Example 32, 2-(3,9-Diaza-bicyclo[3.3.1]non-3-yl)-4-phenyl-quinazoline hydrochloride], the Ki [1] is reported as 38.5 nM and the melting point is reported as over 300 °C.
Molecule `Cl.N[C@H]1CCN(c2nc(-c3ccccc3F)c3ccccc3n2)C1` [Example 34, (S)-(+)-1-[4-(2-Fluoro-phenyl)-quinazolin-2-yl]-pyrrolidin-3-ylamine hydrochloride] has a Ki [1] of 3.8 nM and a melting point of 285 to 287 °C.
Work on `Cl.Fc1cccc(Cl)c1-c1nc(N2CCNCC2)nc2ccccc12` [Example 36, 4-(2-Chloro-6-fluoro-phenyl)-2-piperazin-1-yl-quinazoline hydrochloride] yielded a Ki [1] of 4 nM and a melting point of 266 to 268 °C.
Work on `Cl.Fc1cccc(-c2nc(N3CCNCC3)nc3ccccc23)c1F` [Example 37, 4-(2,3-Difluoro-phenyl)-2-piperazin-1-yl-quinazoline hydrochloride] yielded a Ki [1] of 3 nM and a melting point of 273 to 276 °C.
In the case of `Cl.Fc1ccccc1-c1nc(N2CC3CNCC3C2)nc2ccccc12` (stereo not drawn) [Example 39, 4-(2-Fluoro-phenyl)-2-(hexahydro-pyrrolo[3,4-c]pyrrol-2-yl)-quinazoline hydrochloride], the Ki [1] is reported as 41 nM and the melting point is reported as 270 to 278 °C.
In the case of `Cl.N[C@H]1CCCN(c2nc(-c3ccccc3F)c3ccccc3n2)C1` [Example 40, (S)-(+)-1-[4-(2-Fluoro-phenyl)-quinazolin-2-yl]-piperidin-3-ylamine hydrochloride], the Ki [1] is reported as 18 nM and the melting point is reported as 288 to 289 °C.
`COC(=O)C1(c2nc(-c3ccccc3)c3ccccc3n2)CCNCC1.Cl` [Example 50, 4-(4-Phenyl-quinazolin-2-yl)piperidine-4-carboxylic acid methyl ester hydrochloride] showed a Ki [1] of 9.8 nM and a melting point of 227 to 228 °C.
In the case of `COC(=O)C1(c2nc(-c3ccccc3F)c3ccccc3n2)CCNCC1.Cl` [Example 51, 4-[4-(2-Fluoro-phenyl)-quinazolin-2-yl]-piperidine-4-carboxylic acid methyl ester hydrochloride], the Ki [1] is reported as 15.1 nM and the melting point is reported as 210 to 211 °C.
With `COC(=O)C1(c2nc(-c3ccccc3)c3ccccc3n2)CCCNC1.Cl` (stereo not drawn) [Example 52, 3-(4-Phenyl-quinazolin-2-yl)-piperidine-3-carboxylic acid methyl ester hydrochloride] the Ki [1] was 53.4 nM and the melting point was 143 to 145 °C.
Work on `CC1CN(c2nc(-c3ccccc3)c3ccccc3n2)CCN1` (stereo not drawn) [Example 54, 2-(3-Methyl-piperazin-1-yl)-4-phenyl-quinazoline] yielded a Ki [1] of 41 nM and a melting point of 107 to 108 °C.
`c1ccc(-c2nc(N3C4CCC3CNC4)nc3ccccc23)cc1` [Example 56, 2-(3,8-Diaza-bicyclo[3.2.1]oct-8-yl)-4-phenyl-quinazoline] showed a Ki [1] of 5 nM and a melting point of 278 to 280 °C.
`Fc1cccc(-c2nc(N3CCCNCC3)nc3ccccc23)c1F` [Example 57, 2-[1,4]Diazepan-1-yl-4-(2,3-difluoro-phenyl)-quinazoline] gave a Ki [1] of 4 nM and a melting point of 203 to 206 °C.
Molecule `Fc1ccc2c(-c3ccccc3F)nc(N3CCNCC3)nc2c1` [Example 59, 7-Fluoro-4-(2-fluoro-phenyl)-2-piperazin-1-yl-quinazoline] has a Ki [1] of 2.7 nM and a melting point of 147 to 148 °C.
